In brackets after ≈: the same amount, converted by molar mass.
What was measured:
[1] = system: Staphylococcus aureus LMG15975 (MRSA); format: cell-based; settings: broth microdilution, inoculum ~5 × 10^5 CFU/mL, overnight 37 °C, HPLC-purified peptides
Procedure: (§1) The minimal inhibitory concentration (MIC) values were assessed through broth microdilution following standard guidelines. The inoculum was adjusted to around 5 × 10^5 CFU/mL. MIC was characterized as the lowest concentration of the antimicrobial substance at which no visible growth was observed following overnight incubation at 37 °C.

[2] = system: Enterococcus faecium LMG16003 (VRE); format: cell-based; settings: broth microdilution, inoculum ~5 × 10^5 CFU/mL, overnight 37 °C, HPLC-purified peptides
Procedure: as §1

E. faecium = format: cell-based, Enterococcus faecium; settings: compared to the same peptide labeled with Met; 30 μL of 1 mg/mL in 8 mm wells; zone area minus well area; 3 experiments
Procedure: 2 Production of single-Met containing nisin and nisin variants labeled with Met, Hpg or Hpg–Glc and their antibacterial activity against E. faecium strain. (a) Quantification of fully modified nisin variants labeled with Met or Hpg using HPLC as per Schmitt et al. (b) Evaluation of the antimicrobial efficacy of nisin and its variants against E. faecium through agar well diffusion assay. Each trial was repeated 3 times. The relative activity was determined by measuring inhibition zone diameters in millimeters, calculated as the area of the zone (πr ^2) minus the area of the well (πr ^2) in millimeters.
An overnight culture was added at a concentration of 0.1% (v/v) to molten GM17 agar (for E. faecium and E. faecalis) or LB agar (for S. aureus and B. cereus) at 45 °C, and then 30 mL of this mixture was poured onto a plate. After the agar solidified, wells of 8 mm were created by punching in the agar and filled with 30 μL of a 1 mg/mL lantibiotic solution. If needed, lantibiotics were activated by adding 3 μL of 1 mg/mL NisP directly to the well. The quantity of nisin was determined using HPLC as previously outlined. The agar plate was then incubated at 37 °C overnight, and the zones of inhibition were measured. The presented data results from three independent experiments. Zone diameters were measured in millimeters and recorded as the area of the zone (πr ^2) minus the area of the well (πr ^2) in millimeters.

[3] = system: Listeria monocytogenes LMG10470; assay: MIC, broth microdilution; format: cell-based; settings: inoculum ~5 × 10^5 CFU/mL, overnight 37 °C, HPLC-purified peptides
Procedure: as §1

Bacillus cereus CH-85 = assay: MIC, broth microdilution; format: cell-based; settings: inoculum ~5 × 10^5 CFU/mL, overnight 37 °C, HPLC-purified peptides
Procedure: as §1

Compound	MIC [1] [µg/mL]	MIC [2] [µg/mL]	decrease in zone of inhibition (activity) on Hpg labeling (E. faecium) [%]	MIC [3] [µg/mL]	MIC (Bacillus cereus CH-85) [µg/mL]
C#CCC[C@H](NC(=O)[C@H](CC(N)=O)NC(=O)[C@@H]1CS[C@@H](C)[C@@H](NC(=O)[C@H](CCCCN)NC(=O)[C@@H]2CS[C@@H](C)[C@@H](NC(=O)[C@@H]3CSC[C@@H](NC(=O)/C(=C/C)NC(=O)[C@@H](N)[C@@H](C)CC)C(=O)N[C@@H]([C@@H](C)CC)C(=O)NC(=C)C(=O)N[C@@H](CC(C)C)C(=O)N3)C(=O)N3CCC[C@H]3C(=O)NCC(=O)N2)C(=O)NCC(=O)N[C@@H](C)C(=O)N[C@@H](CC(C)C)C(=O)N[C@@H]([C@@H](C)CC)C(=O)NCC(=O)N1)C(=O)N[C@@H](CCCCN)C(=O)N[C@H]1C(=O)N[C@@H](C)C(=O)N[C@H]2C(=O)N[C@@H](CS[C@H]1C)C(=O)N[C@@H](Cc1c[nH]cn1)C(=O)N[C@H](C(=O)N[C@@H](CO)C(=O)N[C@H](C(=O)N[C@@H](Cc1c[nH]cn1)C(=O)N[C@H](C(=O)NC(=C)C(=O)N[C@@H](CCCCN)C(=O)O)C(C)C)[C@@H](C)CC)CS[C@H]2C [nisin(M17I)(Hpg)]	30.4 (≈ 9.17 µM)	15.2 (≈ 4.59 µM)	30	121.5 (≈ 36.7 µM)	121.5 (≈ 36.7 µM)
C#CCC[C@@H]1NC(=O)[C@H](CC(C)C)NC(=O)[C@H](C)NC(=O)CNC(=O)[C@H](NC(=O)[C@H](CCCCN)NC(=O)[C@@H]2CS[C@@H](C)[C@@H](NC(=O)[C@@H]3CSC[C@@H](NC(=O)/C(=C/C)NC(=O)[C@@H](N)[C@@H](C)CC)C(=O)N[C@@H]([C@@H](C)CC)C(=O)NC(=C)C(=O)N[C@@H](CC(C)C)C(=O)N3)C(=O)N3CCC[C@H]3C(=O)NCC(=O)N2)[C@H](C)SC[C@@H](C(=O)N[C@@H](CC(N)=O)C(=O)N[C@H](C(=O)N[C@@H](CCCCN)C(=O)N[C@H]2C(=O)N[C@@H](C)C(=O)N[C@H]3C(=O)N[C@@H](CS[C@H]2C)C(=O)N[C@@H](Cc2c[nH]cn2)C(=O)N[C@H](C(=O)N[C@@H](CO)C(=O)N[C@H](C(=O)N[C@@H](Cc2c[nH]cn2)C(=O)N[C@H](C(=O)NC(=C)C(=O)N[C@@H](CCCCN)C(=O)O)C(C)C)[C@@H](C)CC)CS[C@H]3C)C(C)C)NC(=O)CNC1=O [nisin(M21V)(Hpg)]	15.2 (≈ 4.61 µM)	7.6 (≈ 2.3 µM)	17	30.4 (≈ 9.21 µM)	30.4 (≈ 9.21 µM)

Source: article PMC12455637, “Functionalizing Nisin with a Sugar Moiety Improves Its Solubility and Results in an Altered Antibacterial Spectrum and Mode of Action” (ACS Synthetic Biology, 2025)
